Assay results: article PMC4965013, “Open Source Drug Discovery with the Malaria Box Compound Collection for Neglected Diseases and Beyond” (PLoS Pathogens, 2016)

Columns and labels:
[1] = tested on: P. falciparum 3D7 trophozoites; assay: Metabolomic fingerprint profiling LC-MS; format: cell-based, Plasmodium falciparum; set-up: UDP-D-glucose / ADP-D-glucose: unit not given here
P. falciparum = assay: EC50 listed in S2 Table Metabolomics (used to set the concentration tested); format: cell-based; settings: Plasmodium falciparum; EC50 used for Factor_XEC50 in metabolomics; read-out: EC50_nM
[2] = metabolite level change after treatment

COc1ccc2c(=O)cc(C(Cl)(Cl)Cl)oc2c1 [MMV665820]
Acetyllysine ([1]; S2 Table Metabolomics, metabolite Acetyllysine): -2.345
N-acetyl-L-ornithine ([1]; S2 Table Metabolomics, metabolite N-acetyl-L-ornithine): -3.277
N-carbamoyl-L-aspartate ([1]; S2 Table Metabolomics, metabolite N-carbamoyl-L-aspartate): -3.842
NADPH ([1]; S2 Table Metabolomics, metabolite NADPH): -0.2986
dAMP ([1]; S2 Table Metabolomics, metabolite dAMP): -0.8398
dCMP ([1]; S2 Table Metabolomics, metabolite dCMP): -0.0001746
dTDP ([1]; S2 Table Metabolomics, metabolite dTDP): -1.2684
dTMP ([1]; S2 Table Metabolomics, metabolite dTMP): -0.5586
dTTP ([1]; S2 Table Metabolomics, metabolite dTTP): -2.5615
dihydroorotate ([1]; S2 Table Metabolomics, metabolite dihydroorotate): -2.921
orotate ([1]; S2 Table Metabolomics, metabolite orotate): -2.382
DLH ([1]; S2 Table Metabolomics, peptide DLH): -2.464
DLS/SDL/SID ([1]; S2 Table Metabolomics, peptide DLS/SDL/SID): -1.694
PD ([1]; S2 Table Metabolomics, peptide PD): -4.28
PEE ([1]; S2 Table Metabolomics, peptide PEE): -1.0444
PVNF ([1]; S2 Table Metabolomics, peptide PVNF): -2.464
3-phosphoglycerate ([1]; metabolite 3-phosphoglycerate, S2 Table Metabolomics): -2.392
ADP-D-glucose ([1]; metabolite ADP-D-glucose, S2 Table Metabolomics): -0.3227
ATP ([1]; metabolite ATP, S2 Table Metabolomics): -1.288
CDP ([1]; metabolite CDP, S2 Table Metabolomics, change in metabolite level after compound treatment): -0.9038
D-sedoheptulose-1/7-phosphate ([1]; metabolite D-sedoheptulose-1/7-phosphate, S2 Table Metabolomics, change in metabolite level after compound treatment): 0.5405
FAD ([1]; metabolite FAD, S2 Table Metabolomics): -1.407
GMP ([1]; metabolite GMP, S2 Table Metabolomics, change in metabolite level after compound treatment): -1.717
NAD+ ([1]; metabolite NAD+, S2 Table Metabolomics): -0.3778
NADP+ ([1]; metabolite NADP+, S2 Table Metabolomics): -0.008784
Octoluse Bisphosphate ([1]; metabolite Octoluse Bisphosphate, S2 Table Metabolomics, change in metabolite level after compound treatment): -4.199
Pyroglutamic acid ([1]; metabolite Pyroglutamic acid, S2 Table Metabolomics): 0.4738
UDP-D-glucose ([1]; metabolite UDP-D-glucose, S2 Table Metabolomics): -0.2217
UDP-D-glucuronate ([1]; metabolite UDP-D-glucuronate, S2 Table Metabolomics): -0.02834
UDP-N-acetyl-glucosamine ([1]; metabolite UDP-N-acetyl-glucosamine, S2 Table Metabolomics): -0.2815
UDP ([1]; metabolite UDP, S2 Table Metabolomics, change in metabolite level after compound treatment): -0.477
UMP ([1]; metabolite UMP, S2 Table Metabolomics, change in metabolite level after compound treatment): -2.629
UTP ([1]; metabolite UTP, S2 Table Metabolomics, change in metabolite level after compound treatment): -1.869
a-ketoglutarate ([1]; metabolite a-ketoglutarate, S2 Table Metabolomics): 0.2276
citrate/isocitrate ([1]; metabolite citrate/isocitrate, S2 Table Metabolomics, change in metabolite level after compound treatment): -0.6427
cytidine ([1]; metabolite cytidine, S2 Table Metabolomics): -0.5777
dATP ([1]; metabolite dATP, S2 Table Metabolomics): -2.2274
dGMP/AMP ([1]; metabolite dGMP/AMP, S2 Table Metabolomics, change in metabolite level after compound treatment): 0.08346
fumarate ([1]; metabolite fumarate, S2 Table Metabolomics, change in metabolite level after compound treatment): -2.544
glucose-1/6-phosphate ([1]; metabolite glucose-1/6-phosphate, S2 Table Metabolomics, change in metabolite level after compound treatment): -2.012
glycerate ([1]; metabolite glycerate, S2 Table Metabolomics, change in metabolite level after compound treatment): -1.622
guanine ([1]; metabolite guanine, S2 Table Metabolomics, change in metabolite level after compound treatment): -1.809
guanosine ([1]; metabolite guanosine, S2 Table Metabolomics, change in metabolite level after compound treatment): -1.332
hypoxanthine ([1]; metabolite hypoxanthine, S2 Table Metabolomics): 0.4621
indole ([1]; metabolite indole, S2 Table Metabolomics): 0.006213
inosine ([1]; metabolite inosine, S2 Table Metabolomics, change in metabolite level after compound treatment): -2.706
2_3-Diphosphoglyceric acid [1, 2]: -2.758
4-phosphopantothenate [1, 2]: -2.584
6-phospho-D-gluconate [1, 2]: -2.402
FMN [1, 2]: -1.9
IMP [1, 2]: -1.4619
Pyrophosphate [1, 2]: -2.687
Sedoheptoluse bisphosphate [1, 2]: -3.03
cyclic-AMP [1, 2]: -3.2218
glutathione disulfide [1, 2]: -1.807
lactate [1, 2]: -6.313
myo-inositol [1, 2]: -0.0001746
nicotinate ([1]; metabolite nicotinate, S2 Table Metabolomics): -0.2855
ornithine ([1]; metabolite ornithine, S2 Table Metabolomics): 0.1501
phosphoenolpyruvate ([1]; metabolite phosphoenolpyruvate, S2 Table Metabolomics): -1.494
pyruvate ([1]; metabolite pyruvate, S2 Table Metabolomics, change in metabolite level after compound treatment): -2.492
ribose-phosphate ([1]; metabolite ribose-phosphate, S2 Table Metabolomics): -0.0001746
sarcosine/alanine ([1]; metabolite sarcosine/alanine, S2 Table Metabolomics, change in metabolite level after compound treatment): -2.81
sn-glycerol-3-phosphate ([1]; metabolite sn-glycerol-3-phosphate, S2 Table Metabolomics): -1.932
succinate/methylmalonic acid ([1]; metabolite succinate/methylmalonic acid, S2 Table Metabolomics, change in metabolite level after compound treatment): -1.8645
uridine ([1]; metabolite uridine, S2 Table Metabolomics, change in metabolite level after compound treatment): -1.942
xanthosine ([1]; metabolite xanthosine, S2 Table Metabolomics, change in metabolite level after compound treatment): -0.05367
EC50 (P. falciparum): 520 nM
